The values below come from ChEMBL document CHEMBL4706760, “Novel Heteroaryl Compounds as Splicing Modulators for Modulating Splicing of mRNA and Uses Thereof for Treating Diseases” (ACS Med Chem Lett, 2021).

Holding throughout (assay type): subcellular
Experiment [1] in a line: Splicing modulation activity at wild type Exon 7/7b/7c/8 mRNA in human cell lysates assessed as induction of poison exon inclusion in RNA measured cells pretreated for 24 hrs followed by first 16 hrs of incubation treated with cycloheximide for 8 hrs by qPCR.
The nature of experiment [2]: Splicing modulation activity at wild type Exon 12/12b/12c/13 mRNA in human cell lysates assessed as induction of poison exon inclusion in RNA measured cells pretreated for 24 hrs followed by first 16 hrs of incubation treated with cycloheximide for 8 hrs by qPCR.
Experiment [3] can be described thus: Splicing modulation activity at Exon E7c mRNA in human cell lysates assessed as induction of poison exon inclusion in RNA measured cells pretreated for 24 hrs followed by first 16 hrs of incubation treated with cycloheximide for 8 hrs by qPCR.
The nature of experiment [4]: Splicing modulation activity at Exon E7b mRNA in human cell lysates assessed as induction of poison exon inclusion in RNA measured cells pretreated for 24 hrs followed by first 16 hrs of incubation treated with cycloheximide for 8 hrs by qPCR.
Experiment [5] is described as follows: Splicing modulation activity at Exon 12c mRNA in human cell lysates assessed as induction of poison exon inclusion in RNA measured cells pretreated for 24 hrs followed by first 16 hrs of incubation treated with cycloheximide for 8 hrs by qPCR.

With `CNC(=O)c1ccc2cc(-c3ccc(N(C)[C@H]4C[C@]5(C)CCC[C@](C)(C4)N5)nn3)c(O)cc2n1`, the IC50 was found to be 27.6 nM in experiment [1] and 54 nM in experiment [2]. For the same molecule, the figures for the EC50 in experiment [3], in experiment [4] and in experiment [5] were 60.2 nM, 9.3 nM and 46.1 nM, respectively.
Take `CN(c1ccc(-c2cc(F)c(-c3cn[nH]c3)cc2O)nn1)[C@@H]1C[C@H]2CCC[C@@H](C1)N2`: in experiment [1], the 50% inhibitory concentration (IC50) was determined as 46 nM. The values for the EC50 in experiment [3] and in experiment [4] were 162 nM and 168 nM, respectively.
As to `CNC(=O)/C=C/c1cc(O)c(-c2ccc(N(C)[C@H]3C[C@]4(C)CCC[C@](C)(C3)N4)nn2)cc1F`, the IC50 in experiment [1] amounted to 99.1 nM; in experiment [2], 162 nM. The EC50 in experiment [3] came out at 310 nM; in experiment [4], 41 nM; in experiment [5], 126 nM.
For the molecule `CN(c1ncc(-c2ccc(-c3cn[nH]c3)cc2O)nn1)[C@@H]1C[C@H]2CC[C@@H](C1)N2`, the IC50 in experiment [1] came to 150 nM. Further, the figures for the EC50 in experiment [3] and in experiment [4] were 294 nM and 39.6 nM, respectively.
Turning to `CN(c1ccc(-c2cc(F)c(-c3ccn(C)c(=O)c3)cc2O)nn1)[C@H]1C[C@]2(C)CCC[C@](C)(C1)N2`, in experiment [2], the half-inhibitory concentration (IC50) was 116 nM. Further, the concentration for a half-maximal effect (EC50) in experiment [5] was determined as 238 nM.
For the molecule `CN(c1ccc(-c2cc(F)c(-c3ccn(CF)c(=O)c3)cc2O)nn1)[C@H]1C[C@]2(C)CCC[C@](C)(C1)N2`, the IC50 in experiment [1] worked out at 93.9 nM; in experiment [2], 94.7 nM. Also, the results for the concentration giving a half-maximal response (EC50) in experiment [3], in experiment [4] and in experiment [5] were 293 nM, 88 nM and 92.9 nM, respectively.
